≈ marks a conversion by molar mass, not a printed value. Where “and” joins values, the source holds several entries; their conditions need not be identical. Equal values may be shown once. Read-outs that look alike come from different tables or passages of the source.
Experiments:
[1] = tested on: human HCC cell line HepG2; assay: cells; type: cell-based; details: for IC50: Homo sapiens, HepG2, 72 h; for in vitro anticancer activity against HepG2, in words: IC50 <100 μg/ml potential, 100-1000 μg/ml moderate; for (LD0) HepG2 / Safe doses (100% viability of HepG2) LD0: human
Procedure: The safe compounds on RBCs (5a-g, 5i-l, 5p-r, 5v-w, 6b-g) were screened for their potential anticancer activity against human HCC cell line HepG2. HepG2 cells were exposed to the test compounds, then viability of cells was measured using neutral red uptake assay as described by Borenfreund and Puerner. This assay depends on the fact that neutral red dye can be incorporated into the lysosomes of living cells providing a quantitative assay to the cytotoxic effects. The results were interpreted to calculate both the concentration causing 50% cancer cell death (IC50) of each compound and the maximum safe concentration that cause 100% viability (LD0; to be used in the in vitro anti-HCV testing) using GraphPad InStat 3.0 software (Figure 5 & Supplementary Table 2).
HepG2 cells were routinely maintained as adherent cell cultures in RPMI-1640 medium (Lonza Group Ltd, Basel, Switzerland) supplemented with 10% fetal bovine serum (FBS; Lonza, IL, USA) at 37°C in a humidified air incubator containing 5% CO2. Cells were subcultured for 2 weeks before assay. Cell viability was assessed using trypan blue exclusion method.
HepG2 cells were washed twice in RPMI-1640 medium supplemented with 200 μM L-glutamine (Lonza) and […] 4-(2-hydroxyethyl)-1-piperazineethanesulfonic acid (HEPES) buffer (Lonza). The cells were suspended at 3 × 10^4 cells/ml in RPMI culture medium (RPMI supplemented medium and 10% FBS). The appropriate number of cells was chosen to be 3 × 10^3 cells/well (100 μl of the prepared suspension), and the cells were left to adhere on the polystyrene 96-well plates in an incubator at 37°C, 5% CO2 and 95% humidity for 24 h. The cells were washed once using RPMI supplemented medium.
A 2 mg/ml stock solution of each compound was prepared in DMF and filtered using a 0.2 μM syringe filter. The desired concentrations (20, 10, 5, 2.5 and 1.25 μg/ml) were prepared using serial dilution in a 96-well plate. Compound wells were prepared by adding 100 μl of the previously prepared concentrations to a 100 μl of HepG2 cells suspension. Parallel concentrations of the solvent were prepared to be used as controls. 5-Fluorouracil was used as a positive control. Control wells were prepared by adding 100 μl culture media to a 100 μl of HepG2 cells suspension. Blank wells contained 200 μl of culture media only (without cells or compound solution). Each set of samples was pipetted in duplicate. The plate was gently shaken, then incubated at 37°C, 5% CO2 for 72 h.
After incubation, the plate was centrifuged (2000 r.p.m. for 10 min). The media were discarded by inversion over paper towels. A working solution (100 μg/ml) of neutral red stain (Bio Basic Inc, Markham, Canada) was prepared, and 100 μl of this solution was added to each well, then the plate was gently shaken. The plate was incubated at 37°C in humidified 5% CO2 for 3 h, and then centrifuged (2000 r.p.m. for 10 min). Excess dyes were discarded, and the cells were fixed with 100 μl fixing solution (0.5% formalin with 1% calcium chloride [Sigma-Aldrich]) for 1 min. Cells were destained in 100 μl destaining solution (50% ethanol with 1% glacial acetic acid [Sigma-Aldrich]) for 5 min by shaking. The stain intensity was assayed using automated microplate reader spectrophotometer adjusted at 490 nm. Surviving cell fraction was calculated according to the following equation: [drawing 3]
The results were interpreted to calculate both the concentration causing 50% cancer cell death (IC50) of each compound and the maximum safe concentration that cause 100% viability (LD0; to be used in the in vitro anti-HCV testing) using GraphPad InStat 3.0 software.

In vitro hemolytic assay = type: cell-based; details: 2% erythrocyte suspension (washed red blood cells); 2% erythrocyte suspension, 3 μl of 1 mg/ml compound in DMF per 240 μl well, 37°C 30 min, absorbance 405 nm; <5% considered nontoxic
Procedure: Compounds 5a-x and 6a-h were subjected to the in vitro hemolytic assay to identify those which cause hemolysis to red blood cells (RBCs). Consequently, these compounds would be toxic in vivo so they were excluded from further biological screening.
Blood samples (5 ml) were freshly collected into heparinized tubes and were centrifuged (1000 r.p.m. for 20 min) at room temperature. The plasma and buffy coat were removed by Pasteur pipette, and the collected erythrocytes were washed three-times using isotonic buffer solution (0.9% sodium chloride [Sigma-Aldrich, MO, USA]) by centrifugation (2500 r.p.m. for 10 min). A two percent erythrocyte suspension was prepared to be used in the assay.
A 1 mg/ml stock solution of each compound was prepared in DMF (Sigma-Aldrich). Compound wells were prepared by adding 3 μl of the compound solution to 117 μl isotonic buffer solution and 120 μl erythrocyte suspension. Compounds color blank wells were prepared by adding 3 μl compound to 237 μl isotonic buffer solution. Solvent (DMF) wells were prepared by adding 3 μl DMF to 117 μl isotonic buffer solution and 120 μl erythrocyte suspension. Positive control wells (representing 100% hemolysis) were prepared by adding 120 μl erythrocyte suspension to 120 μl distilled water, while negative control wells (representing 0% hemolysis) were prepared by adding 120 μl erythrocyte suspension to 120 μl isotonic buffer solution. Finally, blank wells contained only 240 μl isotonic buffer solution. Each set of samples was pipetted in triplicate. The microtiter plate was then shaken well on bench, incubated at 37°C for 30 min then centrifuged (2000 rpm for 5 min) at room temperature.
A fraction of the supernatant layer (150 μl) of each well was transferred to another 96-well microtiter plate. Erythrocyte hemolysis was determined by reading the absorbance (A) of liberated hemoglobin at 405 nm in the supernatant fraction compared with the 100% hemolysis of erythrocyte. The average value was calculated from triplicate assay: [drawing 2]

[2] = 72 h, neutral red, Table 1, read-out: IC50 (HepG2)
[3] = 72 h, neutral red, read-out: IC50 against HepG2 cells
[4] = LD50 on normal cells / IC50 on cancer cells, larger than three = highly selective
[5] = 72 h, neutral red, Supplementary Table 2, read-out: Anticancer (HepG2) IC50

Row | Compound | IC50 [1, 2] [µg/mL] | IC50 [1, 3] [µg/mL] | in vitro anticancer activity against HepG2, in words [1] | Selectivity index ([1]; LD50 on PBMC / IC50 on HepG2) | (LD0) HepG2 ([1]; 72 h) [µg/mL] | Safe doses (100% viability of HepG2) LD0 ([1]; 72 h) [µg/mL] | hemolysis at 30 min, 12.5 µg/ml (In vitro hemolytic assay) [%] | IC50 against HepG2 cells ([1]; 72 h, neutral red) [µg/mL] | IC100, concentration that killed 100% of cancer cells ([1]; HepG2, calculated with GraphPad InStat) | Selectivity index [1, 4] | IC50 [1, 5] [µg/mL]
1 | CC(=NN=C1SC(=Cc2cn(-c3ccccc3)nc2-c2ccccc2)C(=O)N1c1ccc(Cl)cc1)c1nc2ccccc2[nH]1 [Compound 5p, 2-[1-(1H-Benzimidazole-2-yl)ethylidenehydrazono]-5-[(1,3-Diphenyl-1H-pyrazol-4-yl)methylene]-3-(4-chlorophenyl)thiazolidin-4-one] | 46.5 (≈ 75.7 µM) | < 50 | potential in vitro anticancer activity | 2.58 | 13.32 | 13.22 | 4.62 |  |  |  | 
2 | CC(=NN=C1SC(=Cc2cn(-c3ccccc3)nc2-c2ccc(Cl)cc2)C(=O)N1c1ccc(Cl)cc1)c1nc2ccccc2[nH]1 [Compound 5q, 2-[1-(1H-Benzimidazole-2-yl)ethylidenehydrazono]-5-{[3-(4-chlorophenyl)-1-phenyl-1H-pyrazol-4-yl]methylene}-3-(4-chlorophenyl)thiazolidin-4-one] | 35.7 (≈ 55.1 µM) | < 50 | potential in vitro anticancer activity |  | 23.12 | 23.12 | 3.49 | < 100 | 94.54 µg/mL and < 100 µg/mL | larger than three | 
3 | COc1ccc(-c2nn(-c3ccccc3)cc2C=C2SC(=NN=C(C)c3nc4ccccc4[nH]3)N(c3ccc(Cl)cc3)C2=O)cc1 [Compound 5r, 2-[1-(1H-Benzimidazole-2-yl)ethylidenehydrazono]-5-{[3-(4-methoxyphenyl)-1-phenyl-1H-pyrazol-4-yl]methylene}-3-(4-chlorophenyl)thiazolidin-4-one] | 11 (≈ 17.1 µM) | < 50 | potential in vitro anticancer activity | 3.99 | 0.18 | 0.181 | 1.87 |  |  | larger than three | 
4 | CC(=NN=C1SC(=Cc2cn(-c3ccccc3)nc2-c2ccccc2)C(=O)N1C1CCCCC1)c1nc2ccccc2[nH]1 [Compound 5v, 2-[1-(1H-Benzimidazole-2-yl)ethylidenehydrazono]-5-[(1,3-Diphenyl-1H-pyrazol-4-yl)methylene]-3-cyclohexylthiazolidin-4-one] |  |  |  |  | 30.89 | 30.89 | 3.66 |  |  |  | 250 (≈ 427 µM)
5 | CC(=NN=C1SC(=Cc2cn(-c3ccccc3)nc2-c2ccc(Cl)cc2)C(=O)N1C1CCCCC1)c1nc2ccccc2[nH]1 [Compound 5w, 2-[1-(1H-Benzimidazole-2-yl)ethylidenehydrazono]-5-{[3-(4-chlorophenyl)-1-phenyl-1H-pyrazol-4-yl]methylene}-3-cyclohexylthiazolidin-4-one] |  |  | very weak anticancer activity |  | 92.40 | 92.40 | 3.53 |  |  |  | 1100 (≈ 1770 µM)
6 | CC(=NN=C1SC(=C2C(=O)Nc3ccccc32)C(=O)N1c1ccc(Cl)cc1)c1cc2ccccc2o1 [Compound 6b, 2-[1-(Benzofuran-2-yl)ethylidenehydrazono]-5-(2-oxoindolin-3-ylidene)-3-(4-chlorophenyl)thiazolidin-4-one] |  |  |  |  | 11.07 | 11.07 | 3.08 |  |  |  | 354 (≈ 689 µM)
7 | COc1ccc(N2C(=O)C(=C3C(=O)Nc4ccccc43)SC2=NN=C(C)c2cc3ccccc3o2)cc1 [Compound 6c, 2-[1-(Benzofuran-2-yl)ethylidenehydrazono]-5-(2-oxoindolin-3-ylidene)-3-(4-methoxyphenyl)thiazolidin-4-one] | 76.8 (≈ 151 µM) |  | potential in vitro anticancer activity | 0.37 | 3.40 | 3.40 | 4.02 |  |  |  | 
8 | CC(=NN=C1SC(=C2C(=O)Nc3ccccc32)C(=O)N1C1CCCCC1)c1cc2ccccc2o1 [Compound 6d, 2-[1-(Benzofuran-2-yl)ethylidenehydrazono]-5-(2-oxoindolin-3-ylidene)-3-cyclohexylthiazolidin-4-one] | 34.3 (≈ 70.7 µM) | < 50 | potential in vitro anticancer activity | 0.42 | 7.31 | 7.31 | 1.31 |  |  |  | 
9 | CC(=NN=C1SC(=C2C(=O)Nc3ccccc32)C(=O)N1c1ccccc1)c1nc2ccccc2[nH]1 [Compound 6e, 2-[1-(1H-Benzimidazole-2-yl)ethylidenehydrazono]-5-(2-oxoindolin-3-ylidene)-3-phenylthiazolidin-4-one] |  |  |  |  | 16.75 | 16.75 | 4.51 |  |  |  | 110 (≈ 231 µM)
10 | CC(=NN=C1SC(=C2C(=O)Nc3ccccc32)C(=O)N1c1ccc(Cl)cc1)c1nc2ccccc2[nH]1 [Compound 6f, 2-[1-(1H-Benzimidazole-2-yl)ethylidenehydrazono]-5-(2-oxoindolin-3-ylidene)-3-(4-chlorophenyl)thiazolidin-4-one] |  |  |  |  | 35.33 | 35.33 | 1.01 |  |  |  | 154 (≈ 300 µM)
11 | COc1ccc(N2C(=O)C(=C3C(=O)Nc4ccccc43)SC2=NN=C(C)c2nc3ccccc3[nH]2)cc1 [Compound 6g, 2-[1-(1H-Benzimidazole-2-yl)ethylidenehydrazono]-5-(2-oxoindolin-3-ylidene)-3-(4-methoxyphenyl)thiazolidin-4-one] |  |  |  |  | 18.62 | 18.62 | 2.65 |  |  |  | 248 (≈ 487 µM)
